# ChEMBL document CHEMBL4425159, “Design, synthesis and antimalarial evaluation of novel thiazole derivatives” (Bioorg Med Chem Lett, 2016)
# Legend:
# Plasmodium falciparum = experiment: Antimalarial activity against chloroquine sensitive-Plasmodium falciparum 3D7 assessed as growth inhibition preincubated for 24 hrs followed by [3H]-hypoxanthine incorporation measured after 24 hrs by scintillation counting; format: functional, organism-based
# HepG2 = experiment: Cytotoxicity against human HepG2 cells assessed as cell growth inhibition; format: cell-based
# [1] = Lipophilicity, log D of the compound by chromatographic method; format: physicochemical
Compound,IC50 (Plasmodium falciparum) [nM],other results
CC(C)c1sc(N(C)CCO)nc1C(=O)Nc1ccc(F)cc1C(F)(F)F,3260,
CC(C)c1sc(N2CCN(C)CC2)nc1C(=O)Nc1ccccc1C(F)(F)F,31,IC50 (HepG2): 50000 nM
CC(C)c1sc(N2CCN(C)CC2)nc1C(=O)Nc1cc(F)cc(F)c1,> 5000,
CC(C)c1sc(N2CCN(C)CC2)nc1C(=O)Nc1c(Cl)cc(F)cc1Cl,> 5000,
Cc1ccc(NC(=O)c2nc(N3CCN(C)CC3)sc2C(C)C)c(Cl)c1,3270,
CC(C)c1sc(N2CCN(C)CC2)nc1C(=O)Nc1cnccc1Cl,1700,
CC(C)c1sc(N2CCN(C)CC2)nc1C(=O)Nc1ccccc1OC(F)(F)F,34,IC50 (HepG2): > 100000 nM
CC(C)c1sc(N2CCN(C)CC2)nc1C(=O)Nc1ccc(F)cc1,> 5000,
COc1ccccc1NC(=O)c1nc(N2CCN(C)CC2)sc1C(C)C,350,
CC(C)c1sc(N2CCOCC2)nc1C(=O)Nc1ccc(F)cc1C(F)(F)F,102,
CC(C)c1sc(N2CCN(C)CC2)nc1C(=O)Nc1ccccc1S(N)(=O)=O,> 5000,
Cc1cc(F)ccc1NC(=O)c1nc(N2CCN(C)CC2)sc1C(C)C,720,
CC(C)c1sc(N2CCN(C)CC2)nc1C(=O)Nc1c(F)cccc1F,> 5000,
CC(C)c1sc(N2CCN(C)CC2)nc1C(=O)Nc1ccccc1CO,> 5000,
CC(C)c1sc(N2CCN(C)CC2)nc1C(=O)Nc1ccc(C(F)(F)F)cc1Cl,> 5000,
CC(C)c1sc(N2CCN(C)CC2)nc1C(=O)Nc1ccccc1C#N,98,IC50 (HepG2): 32000 nM
CC(C)c1sc(N2CCN(C)CC2)nc1C(=O)Nc1ccccc1Cl,58,IC50 (HepG2): > 100000 nM
CC(C)c1sc(N(C)CCN(C)C)nc1C(=O)Nc1ccc(F)cc1C(F)(F)F,3150,
CC(C)c1sc(N2CCN(C)CC2)nc1C(=O)Nc1ccccc1C(N)=O,> 5000,
CC(C)c1sc(N2CCN(C)CC2)nc1C(=O)Nc1ccc(F)cc1Cl,58,IC50 (HepG2): > 100000 nM
CC(C)c1sc(N2CCN(C)CC2)nc1C(=O)Nc1ccc(F)cc1F,1190,
COCCN(C)c1nc(C(=O)Nc2ccc(F)cc2C(F)(F)F)c(C(C)C)s1,590,
CC(C)c1sc(N2CCN(C)CC2)nc1C(=O)Nc1cccnc1Cl,80,chromatographic logD [1]: 7.8; IC50 (HepG2): > 100000 nM
CC(C)c1sc(N2CCN(C)CC2)nc1C(=O)Nc1ccccc1F,260,
CC(C)c1sc(N2CCN(C)CC2)nc1C(=O)Nc1cccc(Cl)n1,350,
CC(C)c1sc(N2CCN(C)CC2)nc1C(=O)Nc1c(Cl)cc(C(F)(F)F)cc1Cl,> 5000,
CC(C)c1sc(N2CCN(C)CC2)nc1C(=O)Nc1cccnc1,> 5000,
CC(C)c1sc(N2CCN(C)CC2)nc1C(=O)Nc1ncccc1Cl,> 5000,
CC(C)c1sc(N2CCN(C)CC2)nc1C(=O)Nc1ccc(F)cc1C(F)(F)F,24,logD [1]: 9.06; IC50 (HepG2): 78000 nM
